Laboratory results published in article PMC6149751, “Spiro[pyrrolidine-3,3′-oxindoles] and Their Indoline Analogues as New 5-HT6 Receptor Chemotypes” (Molecules : A Journal of Synthetic Chemistry and Natural …, 2017).
Read-outs that look alike come from different tables or passages of the source.

Columns and labels:
Assay type in all cases: binding
5-HT6R = target: T1, 5-HT6R (Homo sapiens, UniProt P50406); assay: [3H]-LSD displacement, HEK293 membranes
T1 construct: gene HTR6; full-length human receptor stably expressed in HEK293 cells; membranes
T1 sequence (P50406 whole entry): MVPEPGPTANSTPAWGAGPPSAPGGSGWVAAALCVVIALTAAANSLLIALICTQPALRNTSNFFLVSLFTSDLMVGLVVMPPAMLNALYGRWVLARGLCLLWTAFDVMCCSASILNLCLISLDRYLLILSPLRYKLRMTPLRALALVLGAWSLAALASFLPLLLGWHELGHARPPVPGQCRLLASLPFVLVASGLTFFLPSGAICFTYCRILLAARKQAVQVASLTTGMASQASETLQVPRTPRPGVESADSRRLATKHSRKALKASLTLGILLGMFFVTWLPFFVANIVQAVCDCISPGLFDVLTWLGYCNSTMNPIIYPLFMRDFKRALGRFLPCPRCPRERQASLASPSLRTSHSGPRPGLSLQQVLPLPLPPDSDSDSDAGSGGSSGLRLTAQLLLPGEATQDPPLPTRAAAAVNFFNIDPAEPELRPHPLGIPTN
Text: [3H]-LSD displacement, HEK293 membranes on 5-HT6R

5-HT7bR = target: T2, 5-HT7bR (Homo sapiens, UniProt P34969); assay: [3H]-5-CT displacement, HEK293 membranes
T2 construct: gene HTR7; human splice isoform 5-HT7b stably expressed in HEK293 cells; membranes
T2 sequence (P34969 1-432): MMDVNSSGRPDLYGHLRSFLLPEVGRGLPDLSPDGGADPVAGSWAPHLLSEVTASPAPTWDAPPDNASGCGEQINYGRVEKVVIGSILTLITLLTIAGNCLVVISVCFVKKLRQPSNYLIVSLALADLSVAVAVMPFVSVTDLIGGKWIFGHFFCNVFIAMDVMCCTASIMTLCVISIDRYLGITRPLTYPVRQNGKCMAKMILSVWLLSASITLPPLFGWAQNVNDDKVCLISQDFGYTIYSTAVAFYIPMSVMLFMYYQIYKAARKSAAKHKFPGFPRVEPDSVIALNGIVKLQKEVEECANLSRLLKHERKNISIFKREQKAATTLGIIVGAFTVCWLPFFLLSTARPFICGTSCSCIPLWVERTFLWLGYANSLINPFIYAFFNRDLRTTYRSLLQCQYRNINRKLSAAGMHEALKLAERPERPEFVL
Text: [3H]-5-CT displacement, HEK293 membranes on 5-HT7bR

5-HT2AR = target: T3, 5-HT2AR (Homo sapiens, UniProt P28223); assay: [3H]-Ketanserin displacement, CHO-K1 membranes
T3 construct: gene HTR2A; full-length human receptor expressed from plasmid in CHO-K1 cells (PerkinElmer); membranes
T3 sequence (P28223 whole entry): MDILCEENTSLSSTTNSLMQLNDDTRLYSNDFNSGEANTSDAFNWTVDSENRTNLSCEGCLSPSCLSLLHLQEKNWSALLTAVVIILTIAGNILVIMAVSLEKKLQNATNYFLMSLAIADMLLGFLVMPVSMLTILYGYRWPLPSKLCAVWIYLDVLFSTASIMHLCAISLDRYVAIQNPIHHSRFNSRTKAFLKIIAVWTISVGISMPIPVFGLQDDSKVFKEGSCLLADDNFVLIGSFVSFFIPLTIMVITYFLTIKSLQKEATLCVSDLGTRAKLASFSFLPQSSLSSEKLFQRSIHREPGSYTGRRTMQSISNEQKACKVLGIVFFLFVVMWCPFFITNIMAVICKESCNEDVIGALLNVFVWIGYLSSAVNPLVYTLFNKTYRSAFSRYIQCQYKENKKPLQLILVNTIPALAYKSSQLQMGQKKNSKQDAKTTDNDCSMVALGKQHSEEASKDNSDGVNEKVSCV
Text: [3H]-Ketanserin displacement, CHO-K1 membranes on 5-HT2AR

5-HT1AR = target: T4, 5-HT1AR (Homo sapiens, UniProt P08908); assay: [3H]-8-OH-DPAT displacement, HEK293 membranes
T4 construct: gene HTR1A; full-length human receptor stably expressed in HEK293 cells; membranes
T4 sequence (P08908 1-422): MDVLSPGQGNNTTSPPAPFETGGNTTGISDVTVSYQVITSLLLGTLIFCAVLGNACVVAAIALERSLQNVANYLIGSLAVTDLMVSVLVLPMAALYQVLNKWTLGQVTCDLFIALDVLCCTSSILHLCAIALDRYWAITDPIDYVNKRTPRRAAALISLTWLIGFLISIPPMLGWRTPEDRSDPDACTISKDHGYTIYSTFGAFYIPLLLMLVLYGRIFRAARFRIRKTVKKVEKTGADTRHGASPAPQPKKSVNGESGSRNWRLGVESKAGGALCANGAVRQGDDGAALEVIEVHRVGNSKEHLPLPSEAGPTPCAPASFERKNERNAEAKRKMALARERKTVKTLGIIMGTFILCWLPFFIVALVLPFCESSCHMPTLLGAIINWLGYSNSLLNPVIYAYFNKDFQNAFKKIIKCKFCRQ
Text: [3H]-8-OH-DPAT displacement, HEK293 membranes on 5-HT1AR

O=S(=O)(c1ccccc1F)N1CC2(CCN(Cc3ccccc3)C2)c2ccccc21 (centres unmarked) [46a, 1′-Benzyl-1-((2-fluorophenyl)sulfonyl)spiro[indoline-3,3′-pyrrolidine]] showed a Ki (5-HT6R; read-out: 5-HT6) of 0.19 µM and a Ki (5-HT7bR; read-out: 5-HT7) of 42.6 µM.

O=C1Nc2ccccc2C12CCNC2c1cccc(F)c1 (centres unmarked) [compound 6, 2′-(3-fluorophenyl)spiro[indoline-3,3′-pyrrolidin]-2-one] was tested, and the Ki (5-HT6R; read-out: 5-HT6) was 6.75 µM, the Ki (5-HT7bR; read-out: 5-HT7) was 8.48 µM and the Ki (5-HT2AR; read-out: 5-HT2A) was 5.05 µM. The Ki (5-HT1AR; read-out: 5-HT1A) was 16.9 µM.

With O=C1Nc2ccc(F)cc2C12CCNC2c1ccc(F)c(Cl)c1 (centres unmarked) [compound 16, 16] the Ki (5-HT6R) was 16.5 µM and the Ki (5-HT2AR) was 53.9 µM.

In the case of CN1CCC2(C1)CN(S(=O)(=O)c1ccccc1)c1ccccc12 (centres unmarked) [40a, 1′-Methyl-1-(phenylsulfonyl)spiro[indoline-3,3′-pyrrolidine]], the Ki (5-HT6R; read-out: 5-HT6) is reported as 1.85 µM, the Ki (5-HT7bR; read-out: 5-HT7) is reported as 40.2 µM and the Ki (5-HT2AR; read-out: 5-HT2A) is reported as 4.52 µM.

Compound Cn1c(=O)n(C)c2cc(C3NCCC34C(=O)Nc3ccccc34)ccc21 (centres unmarked) [compound 15, 15] has a Ki (5-HT6R) of 9.49 µM, a Ki (5-HT7bR) of 46.7 µM and a Ki (5-HT2AR) of 23.7 µM. For the same compound, the Ki (5-HT1AR) was 40.5 µM.

Work on COc1cc(C2NCCC23C(=O)Nc2ccccc23)ccc1OC(F)F (centres unmarked) [compound 13, 13] yielded a Ki (5-HT6R) of 7.73 µM, a Ki (5-HT7bR) of 7.49 µM and a Ki (5-HT2AR) of 5.77 µM. It also gave a Ki (5-HT1AR) of 7.14 µM.

CCN1CCC2(C1)CN(S(=O)(=O)c1ccccc1)c1ccccc12 (centres unmarked) [40b, 1′-Ethyl-1-(phenylsulfonyl)spiro[indoline-3,3′-pyrrolidine]] was tested, and the Ki (5-HT6R; read-out: 5-HT6) was 2.42 µM and the Ki (5-HT2AR; read-out: 5-HT2A) was 3.82 µM.

Compound O=S(=O)(c1ccccc1)N1CC2(CCN(Cc3cccc(F)c3)C2)c2ccccc21 (centres unmarked) [44b, 1′-(3-Fluorobenzyl)-1-(phenylsulfonyl)spiro[indoline-3,3′-pyrrolidine]] has a Ki (5-HT6R; read-out: 5-HT6) of 1.97 µM and a Ki (5-HT7bR; read-out: 5-HT7) of 31.5 µM.

COc1ccc(C2NCCC23C(=O)Nc2ccccc23)cc1OC (centres unmarked) [compound 7, 7] was tested, and the Ki (5-HT6R) was 2.26 µM, the Ki (5-HT7bR) was 2.69 µM and the Ki (5-HT2AR) was 5.45 µM. The Ki (5-HT1AR) was 7.07 µM.

In the case of O=S(=O)(c1ccccc1)N1CC2(CCN(Cc3ccccc3)C2)c2ccccc21 (centres unmarked) [39a, 1′-Benzyl-1-(phenylsulfonyl)spiro[indoline-3,3′-pyrrolidine]], the Ki (5-HT6R; read-out: 5-HT6) is reported as 0.76 µM, the Ki (5-HT7bR; read-out: 5-HT7) is reported as 55.8 µM and the Ki (5-HT2AR; read-out: 5-HT2A) is reported as 4.76 µM.

For O=S(=O)(c1cccc(F)c1)N1CC2(CCN(Cc3ccccc3)C2)c2ccccc21 (centres unmarked) [46b, 1′-Benzyl-1-((3-fluorophenyl)sulfonyl)spiro[indoline-3,3′-pyrrolidine]], the Ki (5-HT6R; read-out: 5-HT6) was 0.71 µM and the Ki (5-HT7bR; read-out: 5-HT7) was 76 µM.

With N#Cc1cccnc1Oc1ccc(C2NCCC23C(=O)Nc2ccccc23)cc1 (centres unmarked) [compound 11, 11] the Ki (5-HT6R) was 6.2 µM, the Ki (5-HT7bR) was 59 µM and the Ki (5-HT2AR) was 8.68 µM. It also gave a Ki (5-HT1AR) of 49.1 µM.

With O=C1Nc2ccccc2C12CCN(S(=O)(=O)c1ccccc1)C2 (centres unmarked) [compound 18, 1′-(Phenylsulfonyl)spiro[indoline-3,3′-pyrrolidin]-2-one] the Ki (5-HT6R) was 6.86 µM and the Ki (5-HT2AR) was 87.4 µM.

In the case of O=C1Nc2ccccc2C12CCNC2c1ccc2c(c1)OCO2 (centres unmarked) [compound 9, 9], the Ki (5-HT6R) is reported as 3.2 µM, the Ki (5-HT7bR) is reported as 8.82 µM and the Ki (5-HT2AR) is reported as 2.69 µM. The Ki (5-HT1AR) was 9.84 µM.

In the case of O=C1Nc2ccccc2C12CCNC2c1cccc2cccnc12 (centres unmarked) [compound 12, 12], the Ki (5-HT6R) is reported as 6.63 µM, the Ki (5-HT7bR) is reported as 10.5 µM and the Ki (5-HT2AR) is reported as 1.12 µM. For the same compound, the Ki (5-HT1AR) was 45.7 µM.

With O=S(=O)(c1ccc(F)cc1)N1CC2(CCN(Cc3ccccc3)C2)c2ccccc21 (centres unmarked) [46c, 1′-Benzyl-1-((4-fluorophenyl)sulfonyl)spiro[indoline-3,3′-pyrrolidine]] the Ki (5-HT6R; read-out: 5-HT6) was 2.45 µM and the Ki (5-HT7bR; read-out: 5-HT7) was 56.1 µM.

With O=C1N(S(=O)(=O)c2ccccc2)c2ccccc2C12CCNC2 (centres unmarked) [compound 17, 1-(Phenylsulfonyl)spiro[indoline-3,3′-pyrrolidin]-2-one] the Ki (5-HT6R; read-out: 5-HT6) was 12.3 µM and the Ki (5-HT7bR; read-out: 5-HT7) was 58.3 µM.

O=C1Nc2ccccc2C12CCNC2c1ccc(OCc2ccc(F)cc2)cc1 (centres unmarked) [compound 8, 8] gave a Ki (5-HT6R) of 3.18 µM, a Ki (5-HT7bR) of 1.09 µM and a Ki (5-HT2AR) of 2.28 µM. It also gave a Ki (5-HT1AR) of 1.74 µM.

Work on CC(C)c1ccc(C2NCCC23C(=O)Nc2ccccc23)cc1 (centres unmarked) [compound 14, 14] yielded a Ki (5-HT6R) of 8.62 µM, a Ki (5-HT7bR) of 8.98 µM and a Ki (5-HT2AR) of 4.54 µM. For the same compound, the Ki (5-HT1AR) was 7.76 µM.

O=S(=O)(c1ccccc1)N1CC2(CCN(Cc3ccc(F)cc3)C2)c2ccccc21 (centres unmarked) [44c, 1′-(4-Fluorobenzyl)-1-(phenylsulfonyl)spiro[indoline-3,3′-pyrrolidine]] was tested, and the Ki (5-HT6R; read-out: 5-HT6) was 1.77 µM and the Ki (5-HT7bR; read-out: 5-HT7) was 15.7 µM.

In the case of O=S(=O)(c1ccccc1)N1CC2(CCN(Cc3ccncc3)C2)c2ccccc21 (centres unmarked) [39b, 1-(Phenylsulfonyl)-1′-(pyridin-4-ylmethyl)spiro[indoline-3,3′-pyrrolidine]], the Ki (5-HT6R) is reported as 6.6 µM and the Ki (5-HT2AR) is reported as 26.9 µM.

O=C1Nc2ccccc2C12CCNC2c1ccc2c(c1)OCCO2 (centres unmarked) [compound 10, 10] gave a Ki (5-HT6R) of 4.11 µM, a Ki (5-HT7bR) of 12.7 µM and a Ki (5-HT2AR) of 4.33 µM. For the same compound, the Ki (5-HT1AR) was 12.1 µM.

For O=S(=O)(c1ccccc1)N1CC2(CCN(Cc3ccccc3F)C2)c2ccccc21 (centres unmarked) [44a, 1′-(2-Fluorobenzyl)-1-(phenylsulfonyl)spiro[indoline-3,3′-pyrrolidine]], the Ki (5-HT6R) was 4.53 µM and the Ki (5-HT7bR) was 78.9 µM.
